From US11198713B2, “Agents modulating beta-catenin functions and methods thereof” (FOG PHARMACEUTICALS, INC., priority 2017, dated 2021)
Values after ≈ are worked out from the molar mass of the structure shown. Like-named read-outs stand apart in the source and are kept apart here.

Assays:
[1] = biological target: T1, full-length beta-catenin (Axin site) (Homo sapiens, UniProt P35222); test: Competition fluorescence polarization assay (Axin site probe); assay type: binding
T1 construct: 15 nM full-length beta-catenin, 20 nM FITC labeled peptide in buffer
T1 sequence (P35222 1-781): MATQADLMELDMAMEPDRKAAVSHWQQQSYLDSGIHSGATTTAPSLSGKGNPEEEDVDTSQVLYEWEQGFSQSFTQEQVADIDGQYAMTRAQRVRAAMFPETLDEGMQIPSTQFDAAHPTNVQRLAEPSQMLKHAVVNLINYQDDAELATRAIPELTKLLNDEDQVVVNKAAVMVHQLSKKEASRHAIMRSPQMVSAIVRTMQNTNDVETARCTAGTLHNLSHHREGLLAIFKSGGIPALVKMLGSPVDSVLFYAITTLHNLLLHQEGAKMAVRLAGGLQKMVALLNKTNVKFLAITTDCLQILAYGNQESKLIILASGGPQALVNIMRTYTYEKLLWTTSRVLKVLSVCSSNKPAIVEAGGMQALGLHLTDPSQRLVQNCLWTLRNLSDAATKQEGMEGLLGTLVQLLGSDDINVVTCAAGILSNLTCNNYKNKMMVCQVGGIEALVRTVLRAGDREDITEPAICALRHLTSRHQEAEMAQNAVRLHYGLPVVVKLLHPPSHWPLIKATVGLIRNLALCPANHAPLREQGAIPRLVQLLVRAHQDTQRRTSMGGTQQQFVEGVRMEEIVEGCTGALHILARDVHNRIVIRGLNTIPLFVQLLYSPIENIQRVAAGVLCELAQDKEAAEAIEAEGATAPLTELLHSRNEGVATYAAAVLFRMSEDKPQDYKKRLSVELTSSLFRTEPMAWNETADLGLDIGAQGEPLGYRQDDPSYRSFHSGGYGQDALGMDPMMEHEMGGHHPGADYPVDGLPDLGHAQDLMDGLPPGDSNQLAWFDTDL
How it was run: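 Competition FP: 15 nM full-length β-catenin pre-incubated 5 min with 20 nM FITC-labelled stapled Axin-site peptide, then titrated peptide added (3-fold series from 5 μM) for 15 min in the dark. Buffer 50 mM Tris pH 8.0, 250 mM NaCl, 2% glycerol, 0.5 mM EDTA; duplicate reads.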

[2] = biological target: T2, biotinylated beta-catenin (Homo sapiens, UniProt P35222); test: Surface Plasmon Resonance (Biacore); assay type: binding
T2 sequence (P35222 1-781): T1 sequence (P35222 1-781)
Experimental: Additionally or alternatively, binding to beta-catenin may be measured by Surface Plasmon Resonance. In an exemplary assay, approximately 6 nmol dried peptide diluted in buffer (50 mM Tris pH 8.0, 300 mM NaCl, 2% glycerol, 0.5 mM TCEP, 0.5 mM EDTA, 0.005% Tween-20, 1 mg/mL CM Dextran, 0.02% w/v sodium azide) was assayed on a Biacore X100 using the Biacore Biotin CAPture Kit (GE Healthcare) and biotinylated beta-catenin. Results were analyzed using the Biacore X100 Evaluation Software. […] FPO217c (Isomer 2) bound to the armadillo domain of β-catenin with a Kd of 2 nM.

[3] = Solubility in DPBS (A280 of supernatant); assay type: physicochemical; conditions: DPBS
Experimental: Suitable assays for assessing solubility are widely known in the art and can be utilized in accordance with the present disclosure. In some embodiments, in an exemplary protocol, dried peptide was reconstituted in DPBS (DPBS, 1×, cell culture grade, Sigma D8537) in triplicate, vortexed, sonicated and then centrifuged. Absorbance of the supernatant was measured at A280 (Nanodrop 2000) and the concentration was determined using the extinction coefficient for tryptophan. Exemplary solubility data are presented in, e.g., Table 2.

[4] = competition fluorescence polarization, Table 2, read-out: in vitro FP EC50
[5] = competition with FITC labeled Axin-site probe, 15 nM full-length beta-catenin, read-out: FP EC50
[6] = Biacore, biotinylated beta-catenin, read-out: Kd

Compound | EC50 [1, 4] | Kd ([2]; Table 2, read-out: Kd by SPR) | further results
CC[C@H](C)[C@@H]1NC(=O)[C@@]2(NC(=O)[C@H](CCC(N)=O)NC(=O)[C@@H]3CCCN3C(C)=O)CCN(CC=CCCCC[C@](C)(C(=O)N[C@@H](Cc3c[nH]cn3)C(=O)N[C@H](C(=O)N[C@@H](CCCNC(=N)N)C(=O)N[C@@H](CCCNC(=N)N)C(=O)N[C@H](C(=O)N[C@@H](Cc3c[nH]c4ccccc34)C(=O)N[C@@H](CCCNC(=N)N)C(N)=O)C(C)C)C(C)C)NC(=O)[C@H](CC(=O)O)NC(=O)[C@H](CC(C)C)NC1=O)C2 (single isomer, unassigned) [FP0745a, Ac-P-Q-MC-I-L-D-R6-H-V-R-R-V-W-R-NH2] | 100 to 500 nM | 34 nM | –
CC[C@H](C)[C@@H]1NC(=O)[C@@](C)(NC(=O)[C@H](CCC(N)=O)NC(=O)[C@@H]2CCCN2C(C)=O)CCCCCC=CCN2CC(C(=O)N[C@@H](Cc3c[nH]cn3)C(=O)N[C@H](C(=O)N[C@@H](CCCNC(=N)N)C(=O)N[C@@H](CCCNC(=N)N)C(=O)N[C@H](C(=O)N[C@@H](Cc3c[nH]c4ccccc34)C(=O)N[C@@H](CCCNC(=N)N)C(N)=O)C(C)C)C(C)C)(C2)NC(=O)[C@H](CC(=O)O)NC(=O)[C@H](CC(C)C)NC1=O (single isomer, unassigned) [FP-0738a] | – | – | EC50 [1, 5]: 200 nM; Kd [2, 6]: ~43 nM
CC[C@H](C)[C@@H]1NC(=O)[C@H](Cc2c[nH]cn2)NC(=O)[C@H](C)NC(=O)[C@H](CC(=O)O)NC(=O)[C@H](CC(C)C)NC(=O)[C@H]([C@@H](C)CC)NC(=O)[C@](C)(NC(=O)[C@H](C)NC(C)=O)CCCCCCC=CCOC(=O)N(C)C[C@@](C)(C(=O)N[C@@H](CCCNC(=N)N)C(=O)N[C@H](C(=O)N[C@@H](Cc2c[nH]c3ccccc23)C(N)=O)C(C)C)NC1=O [FP0338c, Ac-A-R8-I-L-D-A-H-I-MD-R-V-W-NH2] | 100 to 500 nM | 3 nM | –
CC[C@H](C)[C@@H]1NC(=O)[C@@](C)(NC(=O)[C@H](CCC(N)=O)NC(=O)[C@@H]2CCCN2C(C)=O)CCCC=CCCC[C@@](C)(C(=O)N[C@@H](Cc2c[nH]cn2)C(=O)N[C@H](C(=O)N[C@@H](CCCNC(=N)N)C(=O)N[C@@H](CCCNC(=N)N)C(=O)N[C@H](C(=O)N[C@@H](Cc2c[nH]c3ccccc23)C(=O)N[C@@H](CCCNC(=N)N)C(N)=O)C(C)C)C(C)C)NC(=O)[C@H](CC(=O)O)NC(=O)[C@H](CC(C)C)NC1=O [FP0787s, Ac-P-Q-S5-I-L-D-S5-H-V-R-R-V-W-R-NH2] | 100 to 500 nM | 14 nM | –

Continued, in another order:

EC50 [1, 4] | Kd ([2]; Table 2, read-out: Kd by SPR) | Compound | further results
100 to 500 nM | 43 nM | CC[C@H](C)[C@@H]1NC(=O)[C@@](C)(NC(=O)[C@H](CCC(N)=O)NC(=O)[C@@H]2CCCN2C(C)=O)CCCCCC=CCN2CC(C(=O)N[C@@H](Cc3c[nH]cn3)C(=O)N[C@H](C(=O)N[C@@H](CCCNC(=N)N)C(=O)N[C@@H](CCCNC(=N)N)C(=O)N[C@H](C(=O)N[C@@H](Cc3c[nH]c4ccccc34)C(=O)N[C@@H](CCCNC(=N)N)C(N)=O)C(C)C)C(C)C)(C2)NC(=O)[C@H](CC(=O)O)NC(=O)[C@H](CC(C)C)NC1=O (single isomer, unassigned) [FP0738a, Ac-P-Q-S7-I-L-D-MA-H-V-R-R-V-W-R-NH2] | –
< 100 nM | 13 nM | CC[C@H](C)[C@@H]1NC(=O)[C@](C)(NC(=O)[C@H](CCC(N)=O)NC(=O)[C@@H]2CCCN2C(C)=O)CCC=CCOC(=O)N2CC[C@](C(=O)N[C@@H](Cc3c[nH]cn3)C(=O)N[C@H](C(=O)N[C@@H](CCCNC(=N)N)C(=O)N[C@@H](CCCNC(=N)N)C(=O)N[C@H](C(=O)N[C@@H](Cc3c[nH]c4ccccc34)C(=O)N[C@@H](CCCNC(=N)N)C(N)=O)C(C)C)C(C)C)(C2)NC(=O)[C@H](CC(=O)O)NC(=O)[C@H](CC(C)C)NC1=O (single isomer, unassigned) [FP0765c, Ac-P-Q-R4-I-L-D-MC-H-V-R-R-V-W-R-NH2] | –
< 100 nM | 7 nM | CC[C@H](C)[C@@H]1NC(=O)[C@](C)(NC(=O)[C@H](CCC(N)=O)NC(=O)[C@@H]2CCCN2C(C)=O)CCCC=CCOC(=O)N2CC[C@](C(=O)N[C@@H](Cc3c[nH]cn3)C(=O)N[C@H](C(=O)N[C@@H](CCCNC(=N)N)C(=O)N[C@@H](CCCNC(=N)N)C(=O)N[C@H](C(=O)N[C@@H](Cc3c[nH]c4ccccc34)C(=O)N[C@@H](CCCNC(=N)N)C(N)=O)C(C)C)C(C)C)(C2)NC(=O)[C@H](CC(=O)O)NC(=O)[C@H](CC(C)C)NC1=O (single isomer, unassigned) [FP0766c, Ac-P-Q-R5-I-L-D-MC-H-V-R-R-V-W-R-NH2] | –
< 100 nM | – | CC[C@H](C)[C@@H]1NC(=O)[C@](C)(NC(=O)[C@H](C)NC(=O)[C@@H]2CCCN2C(C)=O)CCCCCCC=CCOC(=O)N2CC[C@@](C(=O)N[C@@H](CCCNC(=N)N)C(=O)N[C@H](C(=O)N[C@@H](Cc3c[nH]c4ccccc34)C(N)=O)C(C)C)(C2)NC(=O)[C@H](C(C)C)NC(=O)[C@H](Cc2c[nH]cn2)NC(=O)[C@H](C)NC(=O)[C@H](CC(=O)O)NC(=O)[C@H](CC(C)C)NC1=O [FP0025c, Ac-P-A-R8-I-L-D-A-H-V-MB-R-V-W-NH2] | EC50 [1, 5]: < 100 nM; Kd [2, 6]: 15 nM
< 100 nM | 3 nM | CC[C@H](C)[C@@H]1NC(=O)[C@H](Cc2c[nH]cn2)NC(=O)[C@H](C)NC(=O)[C@H](CC(=O)O)NC(=O)[C@H](CC(C)C)NC(=O)[C@H]([C@@H](C)CC)NC(=O)[C@](C)(NC(=O)[C@H](C)NC(C)=O)CCC=CCOC(=O)N(C)CCC[C@@](C)(C(=O)N[C@@H](CCCNC(=N)N)C(=O)N[C@H](C(=O)N[C@@H](Cc2c[nH]c3ccccc23)C(N)=O)C(C)C)NC1=O [FP0509c, Ac-A-R4-I-L-D-A-H-I-MH-R-V-W-NH2] | solubility ([3]; Table 2, read-out: Solubility): 32 µM (≈ 49.9 µg/mL); solubility ([3]; Table 3 Part A, read-out: Solubility in DPBS): 42 µM (≈ 65.4 µg/mL); Kd ([2]; Table 3 Part A, read-out: Binding Kd): 3 nM
